The test system of data set [1] is Staphylococcus epidermidis EPI2. The experiment in a line: agar-dilution MIC. The note with it: two values = two experiments, 2 median of five, 19 median of three. Type of data set: cell-based.
Data set [2] has as its system Streptococcus pneumoniae Park I. It counts as cell-based. The note with it: two values = two experiments, 2 median of five, 19 median of three.
Description: (§1) In Table VII activity is measured by the minimal inhibitory concentration (MIC), i.e. the lowest concentration of compound at which growth of the microorganism is inhibited by the test compound.
A short description of the next data set: toxicity test, LD50. To be noted: mouse, in vivo, iv; administered intravenously; read-out: LD50 (mg/kg) in Mice.
Data set [3] concerns Staphylococcus epidermidis EPI1. It counts as cell-based. The note with it: two values = two experiments, 2 median of five, 19 median of three.
Data set [4] deals with Streptococcus pyogenes C203. The experiment in a line: agar-dilution MIC. To be noted: two values = two experiments, 2 median of five, 19 median of three. It counts as cell-based.
The subject of data set [5] is Staphylococcus aureus V41. The experiment in a line: agar-dilution MIC. It counts as cell-based. To be noted: Staphylococcus aureus V41, penicillin-resistant strain; two values = two experiments; 2 median of five, 19 median of three.
Description: as §1
For the next data set, the system named is Streptococcus pyogenes. Kind of data set: in vivo experimental bacterial infection, ED50. To be noted: mice; for ED50 Values Streptococcus pyogenes Oral: two doses orally; for ED50 Values Streptococcus pyogenes Subcutaneous: two doses subcutaneously, two values = two experiments.
Data set [6] has as its system Streptococcus Group D 9960. The experiment in a line: agar-dilution MIC. The note with it: two values = two experiments, 2 median of five, 19 median of three. Type of data set: cell-based.
Description: as §1
Another data set has as its system Staphylococcus aureus. Kind of data set: in vivo experimental bacterial infection, ED50. The note with it: mice, two doses subcutaneously; two values = two experiments.
For data set [7], the system named is Streptococcus Group D X66. The experiment in a line: agar-dilution MIC. Type of data set: cell-based. The note with it: two values = two experiments, 2 median of five, 19 median of three.
Description: as §1
The test system of data set [8] is Staphylococcus aureus X400. The experiment in a line: agar-dilution MIC. It counts as cell-based. The note with it: Staphylococcus aureus X400, methicillin-resistant strain; two values = two experiments; 2 median of five, 19 median of three.
Description: as §1
Data set [9] has as its system Staphylococcus aureus X1.1. The experiment in a line: agar-dilution MIC. It counts as cell-based. The note with it: two values = two experiments, 2 median of five, 19 median of three experiments.
Description: as §1

The results in this text go back to patent US4396543A.

≈ marks a conversion by molar mass, not a printed value. Where “and” joins values, the source holds several entries; their conditions need not be identical. Equal entries are not always repeated.

On to `CCCCCCCCCC(=O)N[C@@H](Cc1ccccc1)C(=O)N[C@@H](Cc1c[nH]c2ccccc12)C(=O)N[C@H](CC(N)=O)C(=O)N[C@@H](CC(=O)O)C(=O)N[C@@H]1C(=O)NCC(=O)N[C@@H](CCCN)C(=O)N[C@@H](CC(=O)O)C(=O)N[C@H](C)C(=O)N[C@@H](CC(=O)O)C(=O)NCC(=O)N[C@H](CO)C(=O)N[C@@H]([C@H](C)CC(=O)O)C(=O)N[C@@H](CC(=O)c2ccccc2N)C(=O)O[C@@H]1C` [Compound 19, NTrp-[N-(n-Decanoyl)-L-phenylalanyl]-A-21978C Nucleus], for which the MIC amounted to 0.5 µg/mL (≈ 0.283 µM) in [1]; 0.75 µg/mL (≈ 0.424 µM) in [2]; 1 µg/mL (≈ 0.566 µM) in data set [3]; 0.25 µg/mL (≈ 0.141 µM) in data set [4]; 0.5 µg/mL (≈ 0.283 µM) in data set [5]; 2 µg/mL (≈ 1.13 µM) in [6]. Besides, the MIC in data set [7] was 8 µg/mL (≈ 4.53 µM); in data set [8] it was 1 µg/mL (≈ 0.566 µM); in [9], 0.5 µg/mL (≈ 0.283 µM). Besides, in “toxicity test, LD50”, the LD50 turned out to be 600 mg/kg. Further, the “ED50 Values Streptococcus pyogenes Oral” value in the data set on Streptococcus pyogenes is given as more than 200 mg/kg × 2. Besides, in the data set on Streptococcus pyogenes, the “ED50 Values Streptococcus pyogenes Subcutaneous” value is 0.39 mg/kg × 2. For the same compound, in the data set on Staphylococcus aureus, the “ED50 Values Staphylococcus aureus Subcutaneous” value is 0.7 mg/kg × 2 and 0.98 mg/kg × 2.
With `CCCCCCCCCCCC(=O)N[C@@H](Cc1ccccc1)C(=O)N[C@@H](Cc1c[nH]c2ccccc12)C(=O)N[C@H](CC(N)=O)C(=O)N[C@@H](CC(=O)O)C(=O)N[C@@H]1C(=O)NCC(=O)N[C@@H](CCCN)C(=O)N[C@@H](CC(=O)O)C(=O)N[C@H](C)C(=O)N[C@@H](CC(=O)O)C(=O)NCC(=O)N[C@H](CO)C(=O)N[C@@H]([C@H](C)CC(=O)O)C(=O)N[C@@H](CC(=O)c2ccccc2N)C(=O)O[C@@H]1C` [Compound 8], the minimum inhibitory concentration (MIC) in data set [1] was 1 µg/mL (≈ 0.557 µM); in data set [2], 0.125 µg/mL (≈ 0.0696 µM); in [3], 1 µg/mL (≈ 0.557 µM); in data set [4], 0.25 µg/mL (≈ 0.139 µM); in data set [5] it was 0.25 µg/mL (≈ 0.139 µM); in [6], 0.25 µg/mL (≈ 0.139 µM). Further, the results for the MIC in [7], in data set [8] and in data set [9] were 1 µg/mL (≈ 0.557 µM), 0.5 µg/mL (≈ 0.278 µM) and 0.25 µg/mL (≈ 0.139 µM), respectively. For the same compound, the LD50 in the data set “toxicity test, LD50” was determined as 250 mg/kg. In the data set on Streptococcus pyogenes, the “ED50 Values Streptococcus pyogenes Oral” value was found to be 150 mg/kg × 2. Moreover, in the data set with Streptococcus pyogenes, the “ED50 Values Streptococcus pyogenes Subcutaneous” value is 0.32 mg/kg × 2. Moreover, the “ED50 Values Staphylococcus aureus Subcutaneous” value with Staphylococcus aureus turned out to be 2.35 mg/kg × 2.
In the case of `CCCCCCCCCCCC(=O)Nc1cc(Cl)cc(C(=O)N[C@@H](Cc2c[nH]c3ccccc23)C(=O)N[C@H](CC(N)=O)C(=O)N[C@@H](CC(=O)O)C(=O)N[C@@H]2C(=O)NCC(=O)N[C@@H](CCCN)C(=O)N[C@@H](CC(=O)O)C(=O)N[C@H](C)C(=O)N[C@@H](CC(=O)O)C(=O)NCC(=O)N[C@H](CO)C(=O)N[C@@H]([C@H](C)CC(=O)O)C(=O)N[C@@H](CC(=O)c3ccccc3N)C(=O)O[C@@H]2C)c1Cl` [Compound 7], the MIC came to 2 µg/mL (≈ 1.09 µM) in [1]; 0.125 µg/mL (≈ 0.0681 µM) in [2]; 2 µg/mL (≈ 1.09 µM) in data set [3]; 1 µg/mL (≈ 0.544 µM) in data set [4]; 1 µg/mL (≈ 0.544 µM) in [5]; 2 µg/mL (≈ 1.09 µM) in [6]. Also, the MIC in data set [7] turned out to be 2 µg/mL (≈ 1.09 µM); in [8] it was 2 µg/mL (≈ 1.09 µM); in data set [9], 0.5 µg/mL (≈ 0.272 µM). Further, the LD50 in “toxicity test, LD50” was determined as 200 mg/kg. For the same compound, in the data set on Streptococcus pyogenes, the “ED50 Values Streptococcus pyogenes Oral” value is more than 200 mg/kg × 2. For the same compound, the “ED50 Values Streptococcus pyogenes Subcutaneous” value with Streptococcus pyogenes is given as 0.23 mg/kg × 2. In addition, the “ED50 Values Staphylococcus aureus Subcutaneous” value in the data set with Staphylococcus aureus was determined as 19 mg/kg × 2.
